Source: patent US20240116971A1, “NMN AND DERIVATIVES FOR ITS USE IN THE TREATMENT OF DEPRESSION AND/OR ANXIETY IN PATIENTS HAVING A FORM OF PARKINSONISM” (Nuvamid SA, priority 2021, published 2024)

System: patient having MSA
Experiment: UMSARS questionary before and after 6 months of NMN (beta) in one patient
Format: in vivo, human
Procedure: A person presenting with parkinsonism was given NMN (beta) for 6 months. […] They indicated difficulties to get out of bed in the morning and feeling low and depressed during the day. Administration of 125 mg of NMN (beta) as an oral tablet occurred once per day in the morning. The patient has taken the […] questionary before the beginning of the study (D0) and after 6 months of treatment.

[1] = 6 months vs D0, daily administration

**Q.** How did the “items of the UMSARS questionary improved” value (6 months vs D0, 125 mg/day oral) turn out when `NC(=O)c1ccc[n+]([C@@H]2O[C@H](COP(=O)(O)O)[C@@H](O)[C@H]2O)c1` [beta-NMN, nicotinamide mononucleotide] was run?
**A.** Its value is “improved items 1, 13, 14, 16-18, 22, 26, 28, 29, 34-36”.

**Q.** And the “clinical signs related to motricity” value [1]?
**A.** The value was “did not improve most of the clinical signs related to motricity apart from items 1, 13, 14 and 16”.

**Q.** And the “symptoms related to the depression” value [1]?
**A.** The value was “improved the symptoms related to the depression”.
